We go through 1 molecule from patent US20160082133A1, “CHEMICAL EXCHANGE SATURATION TRANSFER (CEST) BASED MRI USING REPORTER GENES AND SUBSTRATES AND METHODS THEREOF” (The Johns Hopkins University, priority 2013, published 2016).

A short description of data set [1]: Quantification of exchange rates (QUESP, Bloch equation fitting). The note with it: 11.7 T, pH 7.4, 37° C. It counts as physicochemical. As for the experimental part: Exchange rates were quantified with the saturation power dependent CEST approach (QUESP) and Bloch equation fitting (McMahon et al., Magn. Res. Med. 2006, 55, 836). For each sample, the MTRasym was measured at the imino resonance frequency for CEST saturation fields of 43, 85, 128, 170, 213, 255, 340, and 426 Hz while the saturation pulse duration was kept constant at 4000 ms. The Bloch equations were then fit numerically to these MTRasym values using MATLAB (Mathworks), and the exchange rates (kex, s^−1) were determined from the fits. Errors (95% confidence limits) were estimated using the F statistic.

Data set [2] can be described thus: In vitro CEST-MRI of thymidine analogues at 11.7 T. Conditions: pH 7.4, 37° C. In kind it is physicochemical. As for the experimental part:
All compounds were dissolved at a concentration of 20 mM in phosphate-buffered saline (PBS) (pH=7.4) and placed in microcapillaries, as described previously.^17 CESTMRI experiments were performed on a vertical 11.7 T scanner (Bruker Avance system) at 37° C. A modified RARE sequence (TR/TE=10 000/9.4 ms; RARE factor=16; 1 mm slice thickness; FOV=11×11 mm^2; matrix size=64×32; resolution=0.17×0.34 mm^2; and NA=2) including a magnetization transfer (MT) module ([…]) was used to acquire CEST-weighted images from −8 to +8 ppm with increments of 0.2 ppm around the water resonance, which was assigned to be at 0 ppm. Pixel-based B0 correction was used as described before using the same parameters as above except for TR=1500 ms and B1/tsat=21 Hz/500 ms, with a sweep range from −2 to +2 ppm (0.1 ppm steps). Data processing was performed using custom-written scripts in MATLAB (Mathworks). Mean CEST spectra were plotted from an ROI for each sample, after B0 correction. MTRasym=100×(S^−Aω−S^AωA/^‘−’0)/3 was computed at different offsets Aω.

The nature of data set [3]: In vitro CEST imaging on a clinical 3 Tesla MRI scanner. It counts as physicochemical. The note with it: 3.0 T, 20 mM, pH 7.4, room temperature. As for the experimental part:
Experiments were performed on a 3.0 Tesla Philips Achieva system (Philips Healthcare, Best, The Netherlands) using a body coil for transmit and a small animal solenoid coil for reception. CEST data were collected using a pulsed acquisition scheme (Jones, C. K. et al. Magn Reson Med 2011) with a 25 ms, 164 Hz frequency selective saturation pulse followed by a partial EPI readout (EPI factor 3). This TR interval was repeated until a 3D volume was acquired with 5 slices (slice thickness of 10 mm) across a field of view of 48×45 mm^2 (in plane resolution of 0.75 mm×0.9 mm) The acquisition per irradiation frequency consisted of TR/TE=65/5.5 ms and 4 averages. A total of 64 images were acquired which included an unsaturated volume and 63 saturated volumes with equally spaced frequency offsets between ±10 ppm (relative to the water frequency). The total acquisition time was 26 min 38 s. The experiments for B0 correction (Kim, M. et al. Magn Reson Med 2009, 61, 1441) were run the same except that 40 Hz frequency selective saturation pulse was used. Data processing was performed as described herein.

The conditions of data set [4]: cited from earlier work.
Setting [5] is: at 5 ppm for 20 nM agent (so in the source).

For the molecule `C[C@H]1CN([C@H]2C[C@H](O)[C@@H](CO)O2)C(=O)NC1=O` [Compound 1, (5S)-5,6-dihydrothymidine], the “kex of the imino proton” value in data set [1] is recorded as 0.8±0.2×10^3 s^−1. Also, the “kex, quantified exchange rates of imino and water protons” value in data set [1] (5 ppm for 1-3, 6 ppm for dT) is recorded as 0.8 ± 0.2 ×10^3 s^−1. In addition, in data set [2] (setting [5]), the “MTRasym (8.5 Hz)” value was found to be 6%, the “MTRasym (170 Hz)” value turned out to be 18% and the “MTRasym (213 Hz)” value is given as 19%. In addition, in data set [2] (at 5 ppm for 20 mM agent), the “MTRasym (128 Hz)” value turned out to be 14%. The “MTRasym value at 5 ppm, higher compared to dT” value in data set [3] was found to be 40%. Moreover, the “pKa values of the imino proton obtained from the literature” value in data set [4] is recorded as 11.6^43.
